Measured values from patent publication US9550811B2, “Peptide scaffold design” (BIONOR IMMUNO AS, priority 2010, dated 2017).
Read-outs that look alike come from different tables or passages of the source. Where no end group is shown, it is not given here. [ ]: non-standard residue; d: D form. Nle = CCCC[C@H](N)C(=O)O

What was measured:
[1] = tested on: HLA-A1; assay: REVEAL binding assay; settings: score as percentage of the signal generated by the positive control peptide
[2] = tested on: HLA-A24; assay: REVEAL binding assay; settings: score as percentage of the signal generated by the positive control peptide
Description: (§5) The REVEAL™ binding assay determined the ability of each candidate peptide to bind to one or more MHC class I alleles and stabilizing the MHC-peptide complex. […] Detection is based on the presence or absence of the native conformation of the MHC-peptide complex. Each peptide is given a score relative to the positive control peptide, which is a known T cell epitope.

[3] = tested on: HLA-A29; assay: REVEAL binding assay; settings: score as percentage of the signal generated by the positive control peptide
Description: as §5

[4] = tested on: HLA-B8; assay: REVEAL binding assay; settings: score as percentage of the signal generated by the positive control peptide
[5] = tested on: HLA-B14; assay: REVEAL binding assay; settings: score as percentage of the signal generated by the positive control peptide
[6] = tested on: HLA-B15; assay: REVEAL binding assay; settings: score as percentage of the signal generated by the positive control peptide
Description: as §5

[7] = target: HLA-A11 (Homo sapiens, UniProt P04439, A114D/F33Y/S129P); assay: REVEAL binding assay; settings: score as percentage of the signal generated by the positive control peptide
Description: (§1) Binding properties to HLA for the ninemers listed in table 6 were tested for the following HLA-classes:
(§2) HLA-A1, HLA-A2, HLA-A3, HLA-A11, HLA-A24, HLA-A29, HLA-B7, HLA-B8, HLA-B14, HLA-B15, HLA-B27, HLA-B35, HLA-B40.
(§3) The peptides were synthesized as a Prospector PEPscreen®: Custom Peptide Library. […] Quality control by MALDI-TOF Mass Spectrometry was carried out on 100% of samples.
(§4) The REVEAL™ binding assay determined the ability of each candidate peptide to bind to one or more MHC class I alleles and stabilizing the MHC-peptide complex. By comparing the binding to that of high and intermediate affinity T cell epitopes, the most likely immunogenic peptides in a protein sequence can be identified. Detection is based on the presence or absence of the native conformation of the MHC-peptide complex. Each peptide is given a score relative to the positive control peptide, which is a known T cell epitope.

[8] = target: HLA-A2 (Homo sapiens, UniProt P04439, D140Y/D185E/D98H/E176V/E277Q/G131W/G231S/I119V/I121R/I166T/I218V/N151K/N90K/P208A/P217A/Q86G/Q94H/R138H/R169H); assay: REVEAL binding assay; settings: score as percentage of the signal generated by the positive control peptide
Description: as §1, §2, §3, §4

[9] = target: HLA-A3 (Homo sapiens, UniProt P04439); assay: REVEAL binding assay; settings: score as percentage of the signal generated by the positive control peptide
Description: as §1, §2, §3, §4

[10] = target: HLA-B27 (Homo sapiens, UniProt P01889, D138H/D201E/E176V/E204Q/G107R/H137Y/K202T/N104T/N87E/Q56L/Q94K/R106L/R155S/R180L/S101D/S121N/S48T/Y140D/Y33H/Y91C); assay: REVEAL binding assay; settings: score as percentage of the signal generated by the positive control peptide
Description: as §1, §2, §3, §4

[11] = target: HLA-B7 (Homo sapiens, UniProt P01889); assay: REVEAL binding assay; settings: score as percentage of the signal generated by the positive control peptide
Description: as §1, §2, §3, §4

[12] = tested on: HLA-B35; assay: REVEAL binding assay; settings: score as percentage of the signal generated by the positive control peptide
Description: as §5

[13] = tested on: HLA-B40; assay: REVEAL binding assay; settings: score as percentage of the signal generated by the positive control peptide
Description: as §1, §2
The peptides were synthesized as a Prospector PEPscreen®: Custom Peptide Library. Peptides 8-15 amino acids in length were synthesized in 0.5-2 mg quantities with high average purity. Quality control by MALDI-TOF Mass Spectrometry was carried out on 100% of samples.
as §4, with “epitope. The score of the test peptide is reported quantitatively as a percentage of the signal generated by the positive control peptide, and the peptide is indicated as having a putative pass or fail result. Assay performance is confirmed by including an intermediate control peptide that is known to bind with weaker affinity to the allele under investigation.” for “epitope.”

[14] = tested on: human PBMCs; type: cell-based; settings: With Cytofix/Cytoperm and trypsination, BC20
[15] = tested on: DC-cells; assay: Cell penetration assay: staining for biotinylated peptides, dendritic cells gated as CD11c+; type: cell-based, human; settings: low concentration of peptides (208 uM)
Description: A set of peptides were biotinylated on N-terminal, and different combinations of aminoacids, with respect to length and type, were added to the sequence box X^1, X^3 and X^4 in the peptides as illustrated by the diagram below. The peptides were tested on cells grown from one individual blood donor.
96-well U-bottom polystyrene plates (NUNC, cat no: 163320) were used for staining of human PBMCs. Briefly, 8 ul of N- or C-terminally biotinylated peptides according to table 1 or table 2 (i.e. 5 mM, 2.5 mM & 1.25 mM tested for each peptide) were incubated at 37° C. for 2 h with 40 ul of PBMC (12.5×10^6 cells/ml) from blood donors. Cells were then washed 3× with 150 ul of Cellwash (BD, cat no: 349524), followed by resuspension of each cell pellet with 100 ul of Trypsin-EDTA (Sigma, cat no: T4424), then incubated at 37° C. for 5 min. Trypsinated cells were then washed 3× with 150 ul of Cellwash (BD, cat no: 349524), followed by resuspension with BD Cytofix/Cytoperm™ plus (BD, cat no: 554715), then incubated at 4° C. for 20 min according to manufacturer. Cells were then washed 2× with 150 ul PermWash (BD, cat no: 554715). Cells were then stained with Streptavidin-APC (BD, cat no: 554067) & Anti-hCD11c (eBioscience, cat no: 12-0116) according to manufacturer at 4° C. for 30 min aiming to visualize biotinylated peptides & dendritic cells, respectively. Cells were then washed 3× with 150 ul PermWash, followed by resuspension in staining buffer (BD, cat no: 554656) before flow cytometry. Dendritic cells were gated as CD11c+ events outside lymphocyte region (i.e. higher FSC & SSC signals than lymphocytes). 200 000 total cells were acquired on a FACSCanto II flow cytometer with HTS loader, and histograms for both total cells & dendritic cells with respect to peptide-fluorescence (i.e. GeoMean) were prepared.
As shown in table 4 the peptides according to the invention had the ability to allocate through the cell membrane.

Sequence of HLA-B7 (P61769 21-119): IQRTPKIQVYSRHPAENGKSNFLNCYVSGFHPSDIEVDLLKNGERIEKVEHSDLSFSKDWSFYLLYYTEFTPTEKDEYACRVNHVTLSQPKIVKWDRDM
Sequence of HLA-B7 (P01889 25-299): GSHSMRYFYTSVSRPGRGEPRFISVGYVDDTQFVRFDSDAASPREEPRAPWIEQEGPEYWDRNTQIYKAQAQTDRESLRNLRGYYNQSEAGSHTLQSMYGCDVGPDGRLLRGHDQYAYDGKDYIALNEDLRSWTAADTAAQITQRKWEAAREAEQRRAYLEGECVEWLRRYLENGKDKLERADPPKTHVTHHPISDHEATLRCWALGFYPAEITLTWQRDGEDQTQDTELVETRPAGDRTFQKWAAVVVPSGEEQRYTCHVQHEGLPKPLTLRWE
Sequence of HLA-A3 (P04439 25-299): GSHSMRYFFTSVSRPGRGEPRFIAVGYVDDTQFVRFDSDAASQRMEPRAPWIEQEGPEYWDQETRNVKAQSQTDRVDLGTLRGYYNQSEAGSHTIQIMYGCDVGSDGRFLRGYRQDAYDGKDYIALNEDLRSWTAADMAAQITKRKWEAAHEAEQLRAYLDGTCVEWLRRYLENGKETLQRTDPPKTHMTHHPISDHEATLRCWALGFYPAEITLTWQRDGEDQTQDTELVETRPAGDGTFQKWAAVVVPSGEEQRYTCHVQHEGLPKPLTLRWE
Sequence of HLA-A3 (P61769 21-119, further chain): as the sequence (P61769 21-119) above

| Substance | Geomean value (peptide-fluorescence) ([14]; concentration 104 μM) | Geomean value (peptide-fluorescence) ([14]; concentration 208 μM) | Geomean value (peptide-fluorescence) ([14]; concentration 417 μM) | Geomean value (peptide-fluorescence) ([14]; concentration 833 μM) | Results on DC-cells (geomean peptide-fluorescence) ([15]; BC 16) | Results on DC-cells (geomean peptide-fluorescence) ([15]; BC43) | also measured |
| --- | --- | --- | --- | --- | --- | --- | --- |
| ADLMGYIPL | – | – | – | – | – | – | REVEAL binding score, HLA-type A1 [1]: 31.05%; REVEAL binding score, HLA-type A24 [2]: 0.61%; REVEAL binding score, HLA-type A29 [3]: 14.51%; REVEAL binding score, HLA-type B8 [4]: 11.40%; REVEAL binding score, HLA-type B14 [5]: 0.13%; REVEAL binding score, HLA-type B15 [6]: 8.30%; REVEAL binding score, HLA-type A11 [7]: 3.35%; REVEAL binding score, HLA-type A2 [8]: 8.06%; REVEAL binding score, HLA-type A3 [9]: 1.93%; REVEAL binding score, HLA-type B27 [10]: 1.01%; REVEAL binding score, HLA-type B7 [11]: 0.73%; REVEAL binding score, HLA-type B35 [12]: 2.08%; REVEAL binding score, HLA-type B40 [13]: 26.33% |
| AEL[Nle]GYIPL | – | – | – | – | – | – | REVEAL binding score, HLA-type A1 [1]: 16.63%; REVEAL binding score, HLA-type A24 [2]: 0.37%; REVEAL binding score, HLA-type A29 [3]: 20.78%; REVEAL binding score, HLA-type B8 [4]: 14.74%; REVEAL binding score, HLA-type B14 [5]: 0.12%; REVEAL binding score, HLA-type B15 [6]: 10.20%; REVEAL binding score, HLA-type A11 [7]: 3.61%; REVEAL binding score, HLA-type A2 [8]: 7.49%; REVEAL binding score, HLA-type A3 [9]: 3.05%; REVEAL binding score, HLA-type B27 [10]: 0.77%; REVEAL binding score, HLA-type B7 [11]: 1.11%; REVEAL binding score, HLA-type B35 [12]: 1.91%; REVEAL binding score, HLA-type B40 [13]: 72.73% |
| GPRLGVRAT | – | – | – | – | – | – | REVEAL binding score, HLA-type A1 [1]: 13.85%; REVEAL binding score, HLA-type A24 [2]: 0.05%; REVEAL binding score, HLA-type A29 [3]: 12.66%; REVEAL binding score, HLA-type B8 [4]: 13.18%; REVEAL binding score, HLA-type B14 [5]: 0.94%; REVEAL binding score, HLA-type B15 [6]: 10.01%; REVEAL binding score, HLA-type B35 [12]: 1.83%; REVEAL binding score, HLA-type B40 [13]: 19.95% |
| RGYIPLVGAPLGRRRVARALAHGVRV [SP10] | 3709 | 7684 | 18607 | 43389 | 8627 | 9216 | – |
| RGYIPLVGAPLGRRRVARALAHGVRVR [SP4] | 2946 | 7540 | 28008 | 41491 | 10751 | 17372 | – |
| RGYIPLVGAPLGRRVARALAHGVRV [SP3] | 4308 | 10788 | 25905 | 40456 | 9480 | 10573 | – |
| RLGVRATRK | – | – | – | – | – | – | REVEAL binding score, HLA-type A1 [1]: 20.39%; REVEAL binding score, HLA-type A24 [2]: 0.28%; REVEAL binding score, HLA-type A29 [3]: 12.83%; REVEAL binding score, HLA-type B8 [4]: 10.21%; REVEAL binding score, HLA-type B14 [5]: 0.07%; REVEAL binding score, HLA-type B15 [6]: 11.74%; REVEAL binding score, HLA-type B35 [12]: 2.83%; REVEAL binding score, HLA-type B40 [13]: 23.05% |
| RRGPVVHLTLRGRRGQAGDDFS [SP20] | 445 | 1268 | 2457 | 7319 | 19051 | 3383 | – |
| RRGPVVHLTLRRRGQAGDDFS [SP18] | 1038 | 1971 | 1334 | 4869 | 5545 | 7751 | – |
| RRGPVVHLTLRRRGQAGDDFS [SP19] | 1625 | 3466 | 7201 | 17018 | 6522 | 6536 | – |
| RRGYIPLVGAPLGBGRVARALAHGVRV [SP2] | 1211 | – | 5486 | 3136 | 6677 | 6112 | – |
| RRGYIPLVGAPLGLRRVARALAHGVRV [SP17] | 1500 | 12244 | 29967 | 30248 | 67428 | – | – |
| RRGYIPLVGAPLGRRRVARALAHGVRV [SP6] | 1850 | 6514 | 22195 | 32577 | 10233 | 14468 | – |
| RRGYIPLVGAPLGRRVARALAHGVRV [SP5] | 6152 | 19065 | 46060 | 40534 | 21358 | 29146 | – |
| RRRGYIPLVGAPLGBRVARALAHGVRV [SP8] | 2917 | 9617 | 28606 | 31976 | 15379 | 17836 | – |
| SFSIELLAL | – | – | – | – | – | – | REVEAL binding score, HLA-type B40 [13]: 21.04% |
| WGYIPLVGAPLGRRVARALAHGVRV [SP12] | 4316 | 8679 | 10869 | 11089 | 59274 | 31222 | – |
| WWGYIPLVGAPLGRRVARALAHGVRV [SP13] | – | 332 | 394 | 568 | 28539 | 9129 | – |
